Experimental data taken from patent US4894385A, “Imidazole derivatives as inhibitors of TXA2 synthesis” (Sankyo Company Limited, priority 1985, dated 1990).
Structures can show the parent of a compound that is named as a salt.

Assays:
[1] = system: synthesis of TXA2; conditions: in words; Prostaglandins, 13, 611 (1977); cited from earlier work
[2] = target: T1, TXA2 synthetase (Oryctolagus cuniculus, UniProt G1TAZ9); test: Inhibition of Thromboxane A2 Synthetase (rabbit platelet microsomes); assay type: biochemical; conditions: 0.1 mM [14C] arachidonic acid, 1 minute, 22° C., compounds as hydrochloride except No. 40 (free base)
T1 construct: The platelet microsome fraction was separated from rabbit and from human blood; from tissue; host or cells: rabbit blood platelets, microsome fraction
T1 sequence (G1TAZ9 1-530): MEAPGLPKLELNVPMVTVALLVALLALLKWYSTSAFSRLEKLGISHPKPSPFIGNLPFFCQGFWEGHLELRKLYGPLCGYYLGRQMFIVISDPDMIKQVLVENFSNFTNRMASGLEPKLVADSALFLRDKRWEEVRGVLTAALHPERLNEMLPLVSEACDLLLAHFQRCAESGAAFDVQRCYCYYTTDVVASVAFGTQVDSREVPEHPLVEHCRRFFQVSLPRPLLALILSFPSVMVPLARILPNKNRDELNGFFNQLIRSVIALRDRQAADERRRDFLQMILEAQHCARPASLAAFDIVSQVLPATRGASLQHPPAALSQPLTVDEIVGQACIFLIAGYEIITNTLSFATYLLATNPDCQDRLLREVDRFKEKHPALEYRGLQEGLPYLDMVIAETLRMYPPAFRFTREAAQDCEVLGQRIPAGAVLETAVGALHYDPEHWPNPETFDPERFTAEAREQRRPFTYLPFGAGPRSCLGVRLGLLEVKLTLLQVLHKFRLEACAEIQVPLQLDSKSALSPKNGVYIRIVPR
Description: The platelet microsome fraction was separated from rabbit and from human blood by the method of Needleman et al. [Needleman et al., Science, 193, 163 (1976)]. The microsomal TXA2 synthetase activity in the presence of various of the compounds of the invention at various concentrations was assayed by a modification of the method of […] et al. [[…] et al., Prostaglandins, 21, 543 (1981)] by incubating the microsome fractions with labelled 1-[^14 C] arachidonic acid at a concentration of 0.1 mM for 1 minute at 22° C., to a final volume of 0.2 ml. The reaction was terminated by the addition of […] of 0.2M citric acid, and then the mixture was extracted with 1.5 ml of ethyl acetate. […] The developing solvent for the chromatography was a 90:8:1:0.8 by volume mixture of chloroform, methanol, acetic acid and water. […] The results are shown in the following Table as the IC50, i.e. the concentration required to inhibit the activity of thromboxane synthetase by 50%. […] The compounds of the invention are identified in the following Tables by the numbers heretofore assigned to them. All compounds were employed in the form of the hydrochloride, except Compound No. 40, which was employed as the free base. The results using rabbit platelet microsomes are given in Table 4, whilst the results using human platelet microsomes are given in Table 5.

[3] = target: T2, TXA2 synthetase (Homo sapiens, UniProt P24557); test: Inhibition of Thromboxane A2 Synthetase (human platelet microsomes); assay type: biochemical; conditions: 0.1 mM [14C] arachidonic acid, 1 minute, 22° C., compounds as hydrochloride
T2 construct: The platelet microsome fraction was separated from rabbit and from human blood; from tissue; host or cells: human blood platelets, microsome fraction
T2 sequence (P24557 1-533): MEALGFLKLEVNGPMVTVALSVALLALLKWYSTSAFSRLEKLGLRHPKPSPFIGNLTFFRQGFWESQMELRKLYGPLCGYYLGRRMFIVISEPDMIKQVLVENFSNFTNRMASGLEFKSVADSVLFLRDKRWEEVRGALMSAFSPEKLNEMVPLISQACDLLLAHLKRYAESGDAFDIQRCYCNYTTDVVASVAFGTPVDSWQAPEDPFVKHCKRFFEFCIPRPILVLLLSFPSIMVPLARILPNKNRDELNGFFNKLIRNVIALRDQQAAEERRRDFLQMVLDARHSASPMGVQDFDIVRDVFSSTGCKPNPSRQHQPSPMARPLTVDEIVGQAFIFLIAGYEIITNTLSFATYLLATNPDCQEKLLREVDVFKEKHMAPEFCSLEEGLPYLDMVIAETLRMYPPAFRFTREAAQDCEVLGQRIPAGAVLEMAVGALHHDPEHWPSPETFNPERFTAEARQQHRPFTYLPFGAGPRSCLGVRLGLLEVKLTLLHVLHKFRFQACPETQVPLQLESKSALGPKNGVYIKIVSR
Description: The platelet microsome fraction was separated from rabbit and from human blood by the method of Needleman et al. [Needleman et al., Science, 193, 163 (1976)]. The microsomal TXA2 synthetase activity in the presence of various of the compounds of the invention at various concentrations was assayed by a modification of the method of […] et al. [[…] et al., Prostaglandins, 21, 543 (1981)] by incubating the microsome fractions with labelled 1-[^14 C] arachidonic acid at a concentration of 0.1 mM for 1 minute at 22° C., to a final volume of 0.2 ml. The reaction was terminated by the addition of […] of 0.2M citric acid, and then the mixture was extracted with 1.5 ml of ethyl acetate. […] The developing solvent for the chromatography was a 90:8:1:0.8 by volume mixture of chloroform, methanol, acetic acid and water.

[4] = system: pulmonary thromboembolisms caused by the intravenous injection of arachidonic acid; test: Antithrombotic Activity in Rabbits (arachidonic acid i.v. sudden death); assay type: in vivo, male Japanese white rabbits; conditions: Oryctolagus cuniculus; oral, 1 hour before 1.3 mg/kg i.v. arachidonic acid; sudden deaths; Probit's method
Description: This test was carried out by a modification of the method of Silver et al. [Science, 183, 1085 (1974)]. The test animals used were male Japanese white rabbits of approximately 3 kg bodyweight.
Each group of rabbits was administered orally the test compound at an appropriate dose and then, one hour after the oral administration, each was given 1.3 mg/kg or arachidonic acid by intravenous injection. The test animals were observed and sudden deaths during the test period were recorded. The ED50 was determined by Probit's method.
Unmedicated rabbits were employed as a control, without administering any test compound, but these were all dead within several minutes after the injection of arachidonic acid, as a result of pulmonary thromboembolisms.

| Structure (SMILES) | IC50 [2] [µM] | also measured |
| --- | --- | --- |
| Cn1ccnc1 [1-methylimidazole] |  | inhibitory effect on the synthesis of TXA2 [1]: some inhibitory effect |
| O=C(O)c1ccc(SC(Cn2ccnc2)c2ccccc2)cc1 (stereo not drawn) [Compound 40, 4-[1-Phenyl-2-(imidazol-1-yl)ethylthio]benzoic acid] | 0.071 |  |
| O=C(O)c1ccc(SC(Cn2ccnc2)c2ccc(Cl)cc2Cl)cc1 (stereo not drawn) [Compound 44, 4-[1-(2,4-Dichlorophenyl)-2-(imidazol-1-yl)ethylthio]-benzoic acid hydrochloride] | 0.047 |  |
| O=C(O)c1ccc(SC(Cn2ccnc2)c2ccccc2Cl)cc1 (stereo not drawn) [Compound 49, 4-[1-(2-Chlorophenyl)-2-(imidazol-1-yl)ethylthio]benzoic acid hydrochloride] | 0.081 |  |
| Cc1ccccc1C(Cn1ccnc1)Sc1ccc(C(=O)O)cc1 (stereo not drawn) [Compound 58, 4-[1-(2-Methylphenyl)-2-(imidazol-1-yl)ethylthio]benzoic acid hydrochloride] | 0.067 | IC50 [3]: 0.052 µM |
| Cc1cc(C)c(C(Cn2ccnc2)Sc2ccc(C(=O)O)cc2)c(C)c1 (stereo not drawn) [Compound 62, 4-[1-(2,4,6-Trimethylphenyl)-2-(imidazol-1-yl)ethylthio]benzoic acid hydrochloride] | 0.069 |  |
| COc1ccccc1C(Cn1ccnc1)Sc1ccc(C(=O)O)cc1.Cl (stereo not drawn) [Compound 70, 4-[1-(2-Methoxyphenyl)-2-(imidazol-1-yl)ethylthio]benzoic acid hydrochloride] | 0.059 | IC50 [3]: 0.073 µM; ED50 [4]: 0.13 mg/kg |
| COc1ccc(C(Cn2ccnc2)Sc2ccc(C(=O)O)cc2)c(OC)c1 (stereo not drawn) [Compound 74, 4-[1-(2,4-Dimethoxyphenyl)-2-(imidazol-1-yl)ethylthio]benzoic acid hydrochloride] | 0.04 |  |
| COc1cccc(OC)c1C(Cn1ccnc1)Sc1ccc(C(=O)O)cc1 (stereo not drawn) [Compound 79, 4-[1-(2,6-Dimethoxyphenyl)-2-imidazol-1-yl)ethylthio]benzoic acid hydrochloride] | 0.057 |  |
| COc1cc(OC)c(C(Cn2ccnc2)Sc2ccc(C(=O)O)cc2)c(OC)c1 (stereo not drawn) [Compound 84, 4-[1-(2,4,6-Trimethoxyphenyl)-2-(imidazol-1-yl)ethylthio]benzoic acid hydrochloride] | 0.033 |  |
| Cl.O=C(O)c1ccc(OCCn2ccnc2)cc1 [Dazoxiben, 4-[2-(1-imidazolyl)ethoxy]benzoic acid hydrochloride, reference compound] |  | ED50 [4]: 1.1 mg/kg |
| c1c[nH]cn1 [imidazole] |  | inhibitory effect on the synthesis of TXA2 [1]: some inhibitory effect |
